Laboratory results reported in PubChem BioAssay (NCI).
“And” between values parts separate entries of the source, which are not always exact repeats. Equal entries are not always repeated.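 The compound was tested at five concentrations on cells cultured in 96-well plates, with a 48-hour exposure period. GI50 is the concentration that inhibits growth by half. TGI is the concentration that stops growth completely.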

Assays:
Assay in all cases: growth of human tumour cells (NCI), 48 h
SF-295 CNS = tested on: SF-295 CNS
HCT-116 colon = tested on: HCT-116 colon
CAKI-1 renal = tested on: CAKI-1 renal
OVCAR-8 ovarian = tested on: OVCAR-8 ovarian
NCI-H522 lung = tested on: NCI-H522 lung
NCI-H23 lung = tested on: NCI-H23 lung
SK-MEL-28 melanoma = tested on: SK-MEL-28 melanoma
ACHN renal = tested on: ACHN renal
EKVX NSCLC = tested on: EKVX NSCLC
SF-268 CNS = tested on: SF-268 CNS
OVCAR-4 ovarian = tested on: OVCAR-4 ovarian
MDA-MB-231 breast = tested on: MDA-MB-231 breast
HOP-62 NSCLC = tested on: HOP-62 NSCLC
UACC-257 melanoma = tested on: UACC-257 melanoma
HT29 colon = tested on: HT29 colon
OVCAR-3 ovarian = tested on: OVCAR-3 ovarian
K-562 leukemia = tested on: K-562 leukemia
UACC-62 melanoma = tested on: UACC-62 melanoma
CCRF-CEM leukemia = tested on: CCRF-CEM leukemia
HS 578T breast = tested on: HS 578T breast
NCI-H226 lung = tested on: NCI-H226 lung
RXF 393 renal = tested on: RXF 393 renal
MCF7 breast = tested on: MCF7 breast
IGROV1 ovarian = tested on: IGROV1 ovarian
MOLT-4 leukemia = tested on: MOLT-4 leukemia
BT-549 breast = tested on: BT-549 breast
SW-620 colon = tested on: SW-620 colon
HOP-92 NSCLC = tested on: HOP-92 NSCLC
DU-145 prostate = tested on: DU-145 prostate
HL-60(TB) leukemia = tested on: HL-60(TB) leukemia
KM12 colon = tested on: KM12 colon
SNB-19 CNS = tested on: SNB-19 CNS
NCI-H460 lung = tested on: NCI-H460 lung
SNB-75 CNS = tested on: SNB-75 CNS
TK-10 renal = tested on: TK-10 renal
LOX IMVI melanoma = tested on: LOX IMVI melanoma
UO-31 renal = tested on: UO-31 renal
SN12C renal = tested on: SN12C renal
MDA-N = tested on: MDA-N
SF-539 CNS = tested on: SF-539 CNS
A549 NSCLC = tested on: A549 NSCLC
HCT-15 colon = tested on: HCT-15 colon
NCI/ADR-RES ovarian = tested on: NCI/ADR-RES ovarian
OVCAR-5 ovarian = tested on: OVCAR-5 ovarian
M14 melanoma = tested on: M14 melanoma
SK-MEL-2 melanoma = tested on: SK-MEL-2 melanoma
MALME-3M melanoma = tested on: MALME-3M melanoma
T-47D breast = tested on: T-47D breast
U251 CNS = tested on: U251 CNS
A498 renal = tested on: A498 renal
SK-OV-3 ovarian = tested on: SK-OV-3 ovarian
MDA-MB-435 = tested on: MDA-MB-435
HCC-2998 colon = tested on: HCC-2998 colon
PC-3 prostate = tested on: PC-3 prostate
RPMI-8226 leukemia = tested on: RPMI-8226 leukemia
SR leukemia = tested on: SR leukemia
786-0 renal = tested on: 786-0 renal
SK-MEL-5 melanoma = tested on: SK-MEL-5 melanoma

C=C1C(C(O)C[C@H](C)C2O[C@@]3(CCCCO3)CCC2C)O[C@@H]2CCC3(CCC(/C=C/[C@@H](C)C4CC(C)=CC5(O4)O[C@H](C[C@](C)(O)C(=O)O)CCC5O)O3)OC2[C@@H]1O (some centres not stated)
GI50 (SF-295 CNS): 7.48 nM
TGI (SF-295 CNS): 86.7 nM and 25.9 nM
GI50 (HCT-116 colon): 5.57 nM
GI50 (CAKI-1 renal): 16.8 nM
TGI (CAKI-1 renal): 52.3 nM and 40.9 nM
GI50 (OVCAR-8 ovarian): 26.5 nM
GI50 (NCI-H522 lung): 6.29 nM
TGI (NCI-H522 lung): 28.8 nM and 5.39 nM
TGI (NCI-H23 lung): 32.3 nM
GI50 (SK-MEL-28 melanoma): 4.33 nM
TGI (SK-MEL-28 melanoma): 15.1 nM and 6.35 nM
GI50 (ACHN renal): 25.9 nM
TGI (ACHN renal): 101 nM and 61.8 nM
GI50 (EKVX NSCLC): 19.2 nM
TGI (EKVX NSCLC): 124 nM and 17.4 nM
TGI (SF-268 CNS): 8.56 nM
GI50 (OVCAR-4 ovarian): 23.1 nM
TGI (OVCAR-4 ovarian): 89.8 nM and 62.7 nM
GI50 (MDA-MB-231 breast): 11.7 nM
GI50 (HOP-62 NSCLC): 7.4 nM and 3.98 nM
TGI (HOP-62 NSCLC): 25.5 nM and 10.9 nM
GI50 (UACC-257 melanoma): 13.7 nM
TGI (UACC-257 melanoma): 34.2 nM and 23.3 nM
GI50 (HT29 colon): 21 nM
TGI (HT29 colon): 56.1 nM and 39.6 nM
GI50 (OVCAR-3 ovarian): 12.1 nM
TGI (OVCAR-3 ovarian): 31.6 nM and 9.27 nM
TGI (K-562 leukemia): 163 nM and 303 nM
GI50 (UACC-62 melanoma): 4.29 nM
TGI (UACC-62 melanoma): 16.1 nM and 8.61 nM
GI50 (CCRF-CEM leukemia): 5.78 nM
TGI (CCRF-CEM leukemia): 40.9 nM and 93.1 nM
GI50 (HS 578T breast): 2.65 nM
TGI (HS 578T breast): 27.1 nM and 19 nM
TGI (NCI-H226 lung): 8.28 nM
GI50 (RXF 393 renal): 0.277 nM
GI50 (MCF7 breast): 19.9 nM
TGI (MCF7 breast): 44.1 nM and 20.7 nM
GI50 (IGROV1 ovarian): 32.2 nM
TGI (IGROV1 ovarian): 137 nM and 64.1 nM
GI50 (MOLT-4 leukemia): 24.1 nM
TGI (MOLT-4 leukemia): 61.5 nM and 53.5 nM
GI50 (BT-549 breast): 3.37 nM
TGI (BT-549 breast): 11.5 nM and 27.6 nM
GI50 (SW-620 colon): 23.1 nM
TGI (SW-620 colon): 252 nM and 102 nM
GI50 (HOP-92 NSCLC): 13 nM
TGI (HOP-92 NSCLC): 38.6 nM and 9.11 nM
GI50 (DU-145 prostate): 23.1 nM
TGI (DU-145 prostate): 137 nM and 37.7 nM
GI50 (HL-60(TB) leukemia): 1.62 nM
TGI (HL-60(TB) leukemia): 7.8 nM and 16 nM
GI50 (KM12 colon): 6.28 nM
GI50 (SNB-19 CNS): 4.86 nM
TGI (SNB-19 CNS): 15.8 nM and 15.1 nM
GI50 (NCI-H460 lung): 6.31 nM
TGI (NCI-H460 lung): 33.2 nM and 43.7 nM
GI50 (SNB-75 CNS): 4.7 nM
TGI (SNB-75 CNS): 39.5 nM and 4.2 nM
GI50 (TK-10 renal): 67 nM
TGI (TK-10 renal): 202 nM and 36.2 nM
GI50 (LOX IMVI melanoma): 5.88 nM
GI50 (UO-31 renal): 96 nM
TGI (UO-31 renal): 238 nM and 101 nM
GI50 (SN12C renal): 20.2 nM
GI50 (MDA-N): 5.35 nM
GI50 (SF-539 CNS): 4.56 nM
TGI (SF-539 CNS): 17.5 nM and 9.41 nM
GI50 (A549 NSCLC): 47.7 nM
TGI (A549 NSCLC): 255 nM and 258 nM
GI50 (HCT-15 colon): 46.1 nM
TGI (HCT-15 colon): 203 nM and 55 nM
GI50 (NCI/ADR-RES ovarian): 111 nM
TGI (NCI/ADR-RES ovarian): > 1000 nM and 778 nM
GI50 (OVCAR-5 ovarian): 7.06 nM
TGI (OVCAR-5 ovarian): 23.9 nM and 27.5 nM
GI50 (M14 melanoma): 2.77 nM
TGI (M14 melanoma): 9.85 nM and 6.27 nM
GI50 (SK-MEL-2 melanoma): 3.53 nM
TGI (SK-MEL-2 melanoma): 11.2 nM and 8.49 nM
GI50 (MALME-3M melanoma): 9.97 nM
GI50 (T-47D breast): 13.1 nM
TGI (T-47D breast): 185 nM and 64.1 nM
GI50 (U251 CNS): 8.08 nM
GI50 (A498 renal): 31.5 nM
GI50 (SK-OV-3 ovarian): 10.6 nM
TGI (SK-OV-3 ovarian): 42.1 nM and 34.8 nM
GI50 (MDA-MB-435): 7.36 nM
TGI (HCC-2998 colon): 9.25 nM
GI50 (PC-3 prostate): 12.6 nM
TGI (PC-3 prostate): 35.2 nM and 19.1 nM
GI50 (RPMI-8226 leukemia): 4.22 nM
TGI (RPMI-8226 leukemia): 31.4 nM and 17.3 nM
GI50 (SR leukemia): 54.1 nM
GI50 (786-0 renal): 10.8 nM
TGI (786-0 renal): 27.2 nM and 34.3 nM
TGI (SK-MEL-5 melanoma): 15.5 nM and 7.96 nM
